Structures are written as SMILES. Several values for one entry are separate records, joined by “and”; a condition that tells them apart may be missing. Equal values may be shown once.

The subject of data set [1] is Rattus norvegicus. The conditions noted are these: oral.
Data set [2] deals with Rattus norvegicus. The conditions noted are these: oral; for LEL: uterotrophic, Active.
In data set [3] the test system is Rattus norvegicus. The conditions noted are these: repeat dose other; oral.
The test system of data set [4] is Rattus norvegicus. The conditions noted are these: oral. This is another data set of the same source.
Data set [5] deals with Rattus norvegicus. Conditions: reproduction developmental, duration: 43 days, oral, gavage, Sprague-Dawley.
Data set [6] deals with Rattus norvegicus.
A further data set concerns Anas platyrhynchos. Conditions: oral.
In another data set the test system is Mus musculus. Conditions: repeat dose other; oral.
The subject of data set [7] is Rattus norvegicus. Conditions: oral; for NOEL: subchronic, drinking water, Fischer 344, Deaths + Body Weight Changes: decrease + Water Consumption: decrease + Hematology: Hct increase, Hgb increase, RBC increase + Blood ….
Setting [8] is: chronic, oral, M, testicular damage.
Where [9] appears, read: subchronic, duration: 90 days, oral, diet, M/F, reduced weight gain, food consumption increased relative liver weight.
Setting [10] is: subchronic, oral, M, increased liver-to-body weight ratio and hepatic microsomal enzyme induction.
[11] abbreviates: reproduction developmental, oral, M/F, degenerative cardiomyopathy.

In the data set with Rattus norvegicus [1] (short-term, duration: 4 weeks, Whole body: Decreased weight), `Oc1cc(Cl)ccc1Oc1ccc(Cl)cc1Cl` [Triclosan] came in with an NOEL of 500 mg/kg-day. The LEL was 4.69 mg/kg-day and 7.5 mg/kg-day in the data set with Rattus norvegicus [2] (duration: 3 days); 150 mg/kg-day in the data set with Rattus norvegicus [2] (duration: 20 days).

Molecule `[Na+].[O]=[V](=[O])[O-]` [Sodium metavanadate] returned an NOAEL in the data set on Rattus norvegicus [1] (subchronic, duration: 3 months, drinking water, Kidney: Impaired function) of 1.52 mg/kg-day. Moreover, in the data set with Rattus norvegicus [3], the LOAEL turned out to be 2.1 mg/kg-day and the no observed adverse effect level (NOAEL) was found to be 0.21 mg/kg-day.

As to `BrCBr` [Dibromomethane], the NOAEL in the data set with Rattus norvegicus [4] (short-term, duration: 28 days, drinking water, M/F, Sprague-Dawley, Hematologic) was found to be 8.6 mg/kg-day; with Rattus norvegicus [5] (F), 150 mg/kg-day; in the data set on Rattus norvegicus [5] (M), 50 mg/kg-day; in the data set with Rattus norvegicus [5] (generation: F1), 150 mg/kg-day. Further, the LOAEL worked out at 500 mg/kg-day in the data set on Rattus norvegicus [5] (F), 150 mg/kg-day in the data set on Rattus norvegicus [5] (M) and 500 mg/kg-day in the data set on Rattus norvegicus [5] (generation: F1).

In the data set on Rattus norvegicus [3], `[Cl-].[Cl-].[Sr+2]` [Strontium chloride] returned an NOAEL of 263 mg/kg-day.

Turning to `NC1CCCCC1` [Cyclohexylamine], the NOAEL came out at 30 mg/kg-day in the data set with Rattus norvegicus [1] (subchronic, duration: 90 days, diet, Testis: Decreased weight + Whole body: Decreased weight gain) and 18 mg/kg-day with Rattus norvegicus [6] (setting [8]). The same molecule returned an LOAEL with Rattus norvegicus [6] (setting [8]) of 60 mg/kg-day.

In the case of `CC(C)N(C(=O)CCl)c1ccccc1` [Propachlor], the NOEL in the data set on Rattus norvegicus [1] (subchronic, duration: 90 days, diet, Whole body: Decreased weight gain) was determined as 13.3 mg/kg-day. In the data set with Rattus norvegicus [6] (setting [9]), this molecule gave an LEL of 133 mg/kg-day and an NOEL of 13.3 mg/kg-day.

In the data set on Anas platyrhynchos, `[CH3][Hg]/[N]=C(\N)NC#N` [Methyl mercury dicyandiamide] came in with an LOAEL of 0.064 mg/kg-day and an NOAEL of 0.0064 mg/kg-day.

For the molecule `Brc1ccc(Br)c(Br)c1` [1,2,4-Tribromobenzene], the no-observed-adverse-effect level (NOAEL) with Rattus norvegicus [1] (subchronic, duration: 45 days, diet, Liver: Altered weight + Liver: Enzyme induction) was 5 mg/kg-day. Also, in the data set with Rattus norvegicus [6] (setting [10]), the LOAEL came to 10 mg/kg-day and the NOAEL came out at 5 mg/kg-day.

Consider `c1ccc2c(c1)cc1ccc3cccc4ccc2c1c34` [Benzo[a]pyrene], for which the LOAEL was found to be 10 mg/kg-day in the data set with Mus musculus and 0.025 mg/m3 with Rattus norvegicus [6] (developmental, duration: 9 days, inhalation, M/F, reduced embryo/fetal survival). This molecule also had a no-observed-adverse-effect level (NOAEL) in the data set on Mus musculus of 1 mg/kg-day.

Take `Nc1cccc(O)c1` [3-Aminophenol]: the NOAEL came out at 80 mg/kg-day in the data set on Rattus norvegicus [4] (short-term, duration: 18 days, gavage, M/F, Sprague-Dawley, Whole Body Effects) and 240 mg/kg-day in the data set on Rattus norvegicus [7] (short-term, duration: 28 days, gavage, M/F, Sprague-Dawley, Clinical Observation: Tremor Salivation + Body Weight Changes: decrease + Food Consumption: decrease + Water Consumption: increase + …).

As for `O=[Se]([O-])[O-].[Na+].[Na+]` [Sodium selenite], the LOAEL in the data set on Anas platyrhynchos amounted to 1 mg/kg-day. For the same molecule, in the data set on Anas platyrhynchos, the NOAEL worked out at 0.5 mg/kg-day. In addition, the NOEL turned out to be 0.17 mg/kg-day with Rattus norvegicus [7] (F) and 0.304 mg/kg-day with Rattus norvegicus [7] (M/F).

On to `[PH]=[Zn].[PH]=[Zn].[Zn]` [Zinc phosphide (Zn3P2)], for which the LOAEL was 3.48 mg/kg-day in the data set on Rattus norvegicus [1] (subchronic, duration: 13 weeks, diet, Whole body: Decreased food intake + Whole body: Decreased weight); 3.48 mg/kg-day in the data set on Rattus norvegicus [6] (subchronic, oral, F, reduced food intake and body weight).

For `CCCN(CCC)C(=O)SCC` [EPTC], the NOEL in the data set with Rattus norvegicus [1] (reproduction developmental, diet, Heart: Degenerative cardiomyopathy) came out at 2.5 mg/kg-day; in the data set on Rattus norvegicus [6] (setting [11]), 2.5 mg/kg-day; in the data set with Rattus norvegicus [2] (Hershberger, duration: 10 days, gavage, Sprague-Dawley, anti-androgenic + no effect on PPS, AST or thyroid / decreasing trend significant for LABC) it was 125 mg/kg-day. Further, in the data set with Rattus norvegicus [6] (setting [11]), the LEL turned out to be 10 mg/kg-day.

The molecule `CCCCCC` [n-Hexane] displayed an LOAEL in the data set with Rattus norvegicus [4] (subchronic, duration: 8 weeks, gavage, M, Wistar, Nervous) of 785 mg/kg-day.

Molecule `N#CCC#N` [Propanedinitrile] had an NOAEL in the data set on Rattus norvegicus [4] (subchronic, duration: 90 days, gavage, M/F, Crl:CD(SD) BR, hepatic) of 0.4 mg/kg-day.

`O=S(=O)(c1ccccc1)c1ccccc1` [Diphenylsulfone] gave an NOAEL with Rattus norvegicus [4] (subchronic, duration: 13 weeks, diet, M) of 8 mg/kg-day.

As to `C=C(C)C(=O)OC` [Methyl methacrylate], the NOEL in the data set on Rattus norvegicus [1] (chronic, duration: 24 months, drinking water, Kidney: Increased relative weight) was 7.5 mg/kg-day. Besides, the NOAEL with Rattus norvegicus [6] (chronic, oral, drinking water, M/F, no effects) turned out to be 136 mg/kg-day.

In the data set with Mus musculus, `[Mo].[O-2].[O-2].[O-2].[O-2]` [Tetraoxomolybdate(2-)] yielded an LOAEL of 2.6 mg/kg-day and an NOAEL of 0.26 mg/kg-day.

Regarding `CNc1ccccc1` [N-Methylaniline], the NOAEL in the data set with Rattus norvegicus [4] (short-term, duration: 28 days, gavage, M/F, CD, Hematologic, Immune) was 5 mg/kg-day.

Values taken from EPA's ToxValDB 9.5.
